Results: patent US12180526B2, “Subterranean microalgae for production of microbial biomass, substances, and compositions” (Kuehnle AgroSystems, Inc., priority 2019, dated 2024)

Assay: DPPH Radical Scavenging Activity
Settings: DPPH 0.06 mM in methanol
Procedure: Extraction and isolation of C-PC are carried out as is known in the art (Wu et al. 2016) using commercial grade biomass from a source in Hawaii. The C-PC is then further purified by ultrafiltration using a 10 kDa membrane to obtain an absorbance ratio of A620/A280 of 1.4 and stored frozen as a lyophilized powder. For testing, powder is solubilized in phosphate-citrate buffer to 0.4 mg/mL. Samples are tested for thermal stability at 65° C. for 30 minutes, at pH 6.0, per Example 3. The addition of EPS at a concentration of 1% (w/v; produced from resolubilized lyophilized powder with no added grinding) results in a reduction of the CR value by 13% compared to the control lacking stabilizing agents after exposure to 65° C. for 30 min at pH 6.0. This indicates added stabilization, which can likely be optimized with additional testing. Antioxidant capacity is measured using the DPPH Radical Scavenging Activity as is known in the art (Alam et al. 2013), with the modification of using DPPH (1,1-diphenyl-2-picrylhydrazyl; Sigma-Aldrich D9132) in methanol (0.06 mM), and readings taken on a Biotek Synergy HTX multi-mode microplate reader.

antioxidant activity IC50: 1800 µg/mL
Substance: phycocyanin
